Experiments:
[1] = Time to LOAC post-randomization (Cox regression, Kaplan-Meier); format: in vivo, human
Text: Time to LOAC post-randomization was to be analyzed using a Cox regression model with treatment (Cox 1972), baseline IgE strata, and region (pooled country) as covariates. The Kaplan-Meier (KM) method was to be used to estimate the probabilities of the event at specific time points for each treatment group (Kaplan and Meier 1958). Nominal p-value from log-rank test stratified by baseline IgE strata and region was also to be provided.

[2] = Safety: adverse events (TEAEs, SAEs, AESIs), vital signs, labs; format: in vivo, human; settings: for Participants with any TEAE / Participants with any TEAE leading to death / Participants with any TEAE related to IMP / Participants with any severe TEAE / Participants with any treatment emergent AESI / Participants with any treatment emergent SAE: safety population
Text: In terms of safety, […], adverse events of special interest (AESIs), vital signs, and laboratory analyses were to be reported.
Safety assessments included physical examinations, measurements of vital signs, electrocardiograms, clinical safety laboratory assessments, and pregnancy testing.
An AE is any untoward medical occurrence in a patient or clinical study participant, temporally associated with the use of study intervention, whether or not considered related to the study intervention.
An adverse event of special interest (AESI) is an AE (serious or nonserious) of scientific and medical concern specific to the Sponsor's product or program, for which ongoing monitoring and immediate notification by the Investigator to the Sponsor was required. Such events may have required further investigation in order to characterize and understand them. Adverse events of special interest may have been added, modified or removed during a study by protocol amendment. AESIs include the following: • Pregnancy of a participant entered in a study as well as pregnancy occurring in a female partner of a participant entered in a study with IMP. • Symptomatic overdose (serious or nonserious) with IMP. • Other project-specific AESI(s), including: severe infections including opportunistic infections; tuberculosis or initiation of medications for suspected tuberculosis; active COVID-19 infection as documented by a positive COVID-19 molecular test; major hemorrhagic events, including symptomatic bleeding in a critical area or organ such as the CNS, or intraocular bleeding, resulting in an SAE; serious adverse events (or non-serious adverse events with a severity level consistent with Grade 3 CTCAE of cytopenia; and atrial fibrillation.
The safety variables, including AEs, vital signs, physical examination, and laboratory values were to be summarized using descriptive statistics in each treatment group in the safety population.
All safety analyses were to be performed on the safety population. The baseline value is defined generally as the last available value before the first dose of IMP.
In general, AEs were to be analyzed in the following 3 categories: • Pre-treatment AEs: AEs that developed, worsened, or became serious during the pre-treatment period. • TEAEs: AEs that developed, worsened, or became serious during the treatment-emergent period. • Post-treatment AEs: AEs that developed, worsened, or became serious during the post-treatment period.

[3] = target: tyrosine protein kinase TEC; settings: cited from earlier work
ERBB4 = settings: cited from earlier work
[4] = ITP, cited from earlier work
[5] = 400 mg BID cohort, N = 32, mITT
[6] = 400 mg TID cohort, N = 64, mITT

CC(C)(C=C(C#N)C(=O)N1CCC[C@@H](n2nc(-c3ccc(Oc4ccccc4)cc3F)c3c(N)ncnc32)C1)N1CCN(C2COC2)CC1 (mixture of isomers) [rilzabrutinib, (R)-2-[3-[4-amino-3-(2-fluoro-4-phenoxy-phenyl)pyrazolo[3,4-d]pyrimidin-1-yl]piperidine-1-carbonyl]-4-methyl-4-[4-(oxetan-3-yl)piperazin-1-yl]pent-2-enenitrile]
Number of participants censored [1, 5]: 20
Number of participants with LOAC (time-to-LOAC analysis) [1, 5]: 12
Percentage of participants censored [1, 5]: (62.5)
Percentage of participants with LOAC (time-to-LOAC analysis) [1, 5]: (37.5)
Probability of LOAC at Week 4 ([1]; 400 mg BID cohort, mITT, 95% CI (0.059, 0.309)): 0.161
Probability of LOAC at Week 9 ([1]; 400 mg BID cohort, mITT, 95% CI (0.125, 0.429)): 0.265
Probability of LOAC at Week 12 ([1]; 400 mg BID cohort, mITT, 95% CI (0.243, 0.607)): 0.432
HR vs. placebo, time to LOAC ([1]; 400 mg BID cohort, mITT, 95% CI (0.352, 1.595)): 0.750
Q1 of time to LOAC ([1]; 400 mg BID cohort, mITT, 95% CI (19.0, 84.0)): 55.0 days
Number of participants censored [1, 6]: 52
Number of participants with LOAC (time-to-LOAC analysis) [1, 6]: 12
Percentage of participants censored [1, 6]: (81.3)
Percentage of participants with LOAC (time-to-LOAC analysis) [1, 6]: (18.8)
Probability of LOAC at Week 4 ([1]; 400 mg TID cohort, mITT, 95% CI (0.001, 0.080)): 0.017
Probability of LOAC at Week 9 ([1]; 400 mg TID cohort, mITT, 95% CI (0.077, 0.261)): 0.156
Probability of LOAC at Week 12 ([1]; 400 mg TID cohort, mITT, 95% CI (0.117, 0.325)): 0.211
HR vs. placebo, time to LOAC ([1]; 400 mg TID cohort, mITT, 95% CI (0.327, 1.408)): 0.679
overall safety ([2]; 400 mg BID and TID, asthma): generally safe, with no evidence of new safety concerns
Participants with any TEAE ([2]; 400 mg BID, N = 32): 14 (43.8) n (%)
Participants with any TEAE leading to death ([2]; 400 mg BID, N = 32): 0 n (%)
Participants with any TEAE related to IMP ([2]; 400 mg BID, N = 32): 5 (15.6) n (%)
Participants with any severe TEAE ([2]; 400 mg BID, N = 32): 0 n (%)
Participants with any treatment emergent AESI ([2]; 400 mg BID, N = 32): 1 (3.1) n (%)
Participants with any treatment emergent SAE ([2]; 400 mg BID, N = 32): 2 (6.3) n (%)
Participants with any TEAE ([2]; 400 mg TID, N = 64): 26 (40.6) n (%)
Participants with any TEAE leading to death ([2]; 400 mg TID, N = 64): 0 n (%)
Participants with any TEAE related to IMP ([2]; 400 mg TID, N = 64): 10 (15.6) n (%)
Participants with any severe TEAE ([2]; 400 mg TID, N = 64): 1 (1.6) n (%)
Participants with any treatment emergent AESI ([2]; 400 mg TID, N = 64): 3 (4.7) n (%)
Participants with any treatment emergent SAE ([2]; 400 mg TID, N = 64): 0 n (%)
Participants with any TEAE ([2]; combined BID and TID, N = 96): 40 (41.7) n (%)
Participants with any TEAE leading to death ([2]; combined BID and TID, N = 96): 0 n (%)
Participants with any TEAE related to IMP ([2]; combined BID and TID, N = 96): 15 (15.6) n (%)
Participants with any severe TEAE ([2]; combined BID and TID, N = 96): 1 (1.0) n (%)
Participants with any treatment emergent AESI ([2]; combined BID and TID, N = 96): 4 (4.2) n (%)
Participants with any treatment emergent SAE ([2]; combined BID and TID, N = 96): 2 (2.1) n (%)
IC50 [3]: 0.8 nM
IC50 (ERBB4): 11 nM
treatment-emergent serious adverse events (TESAEs) ([4]; Phase 1/2): no treatment-emergent serious adverse events (TESAEs) observed
participants achieving the primary response endpoint ([4]; treatment for at least 12 weeks): 50%

From patent US20260345619A1 (Principia Biopharma Inc., priority 2023, published 2026)
